Reference: publication PMC2840623 (Biochemistry, 2010)

What was measured:
[1] = target: epi-isozizaene synthase (EIZS) (Streptomyces coelicolor, UniProt Q9K499, F198A); assay: X-ray crystal structure, […] Å; type: binding; settings: complex with 3 Mg2+ and PPi; active site, alternative orientation
[2] = target: T1, epi-isozizaene synthase (EIZS) (Streptomyces coelicolor, UniProt Q9K499); assay: X-ray crystal structure, […] Å; type: binding; settings: complex with 3 Mg2+ and BTAC; active site
T1 sequence (Q9K499 1-361): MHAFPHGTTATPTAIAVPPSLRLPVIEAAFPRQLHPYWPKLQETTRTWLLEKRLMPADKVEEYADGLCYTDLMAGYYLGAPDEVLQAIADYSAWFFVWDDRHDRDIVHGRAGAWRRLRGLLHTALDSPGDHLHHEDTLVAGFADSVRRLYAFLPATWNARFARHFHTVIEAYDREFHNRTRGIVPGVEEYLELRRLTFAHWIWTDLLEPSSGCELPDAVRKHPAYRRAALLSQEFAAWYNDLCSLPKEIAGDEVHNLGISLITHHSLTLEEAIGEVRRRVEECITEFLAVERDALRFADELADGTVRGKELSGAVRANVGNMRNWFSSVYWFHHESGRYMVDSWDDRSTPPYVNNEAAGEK

epi-isozizaene synthase (EIZS) (Streptomyces coelicolor, UniProt Q9K499, F198A), sequence (Q9K499 whole entry F198A): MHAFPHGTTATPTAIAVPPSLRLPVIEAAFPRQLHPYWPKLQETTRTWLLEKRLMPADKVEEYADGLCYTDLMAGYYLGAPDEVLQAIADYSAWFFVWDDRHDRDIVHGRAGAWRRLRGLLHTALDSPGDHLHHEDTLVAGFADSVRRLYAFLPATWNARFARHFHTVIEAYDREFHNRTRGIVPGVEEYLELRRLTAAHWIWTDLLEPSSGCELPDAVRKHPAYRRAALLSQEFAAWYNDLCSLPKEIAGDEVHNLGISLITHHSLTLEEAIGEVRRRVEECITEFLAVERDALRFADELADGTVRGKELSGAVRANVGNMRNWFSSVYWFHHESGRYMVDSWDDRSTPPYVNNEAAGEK

SMILES | X-ray crystal structure, 1.64 Å [1] | X-ray crystal structure, 1.60 Å [2]
CC[N+](CC)(CC)Cc1ccccc1 [BTAC, benzyltriethylammonium cation] | the BTAC molecule occupies an alternative position | 
O=P(O)(O)OP(=O)(O)O [PPi, inorganic pyrophosphate] |  | The PPi anion also accepts hydrogen bonds from the side chains of R194, K247
